Active and inactive are the calls of the source. No cut-off for these calls is given here.
What was measured:
Assay type in all cases: cell-based
[1] = molecular target: T1, Protein deacetylase HDAC6 (Homo sapiens) (UniProt Q9UBN7); experiment: Induction of HDAC6 degradation in human HCT-116 cells assessed as increase in alpha-tubulin acetylation level measured after 10 hrs by Western blot analysis; conditions: dose 0.1-160 µM
T1 sequence (whole entry): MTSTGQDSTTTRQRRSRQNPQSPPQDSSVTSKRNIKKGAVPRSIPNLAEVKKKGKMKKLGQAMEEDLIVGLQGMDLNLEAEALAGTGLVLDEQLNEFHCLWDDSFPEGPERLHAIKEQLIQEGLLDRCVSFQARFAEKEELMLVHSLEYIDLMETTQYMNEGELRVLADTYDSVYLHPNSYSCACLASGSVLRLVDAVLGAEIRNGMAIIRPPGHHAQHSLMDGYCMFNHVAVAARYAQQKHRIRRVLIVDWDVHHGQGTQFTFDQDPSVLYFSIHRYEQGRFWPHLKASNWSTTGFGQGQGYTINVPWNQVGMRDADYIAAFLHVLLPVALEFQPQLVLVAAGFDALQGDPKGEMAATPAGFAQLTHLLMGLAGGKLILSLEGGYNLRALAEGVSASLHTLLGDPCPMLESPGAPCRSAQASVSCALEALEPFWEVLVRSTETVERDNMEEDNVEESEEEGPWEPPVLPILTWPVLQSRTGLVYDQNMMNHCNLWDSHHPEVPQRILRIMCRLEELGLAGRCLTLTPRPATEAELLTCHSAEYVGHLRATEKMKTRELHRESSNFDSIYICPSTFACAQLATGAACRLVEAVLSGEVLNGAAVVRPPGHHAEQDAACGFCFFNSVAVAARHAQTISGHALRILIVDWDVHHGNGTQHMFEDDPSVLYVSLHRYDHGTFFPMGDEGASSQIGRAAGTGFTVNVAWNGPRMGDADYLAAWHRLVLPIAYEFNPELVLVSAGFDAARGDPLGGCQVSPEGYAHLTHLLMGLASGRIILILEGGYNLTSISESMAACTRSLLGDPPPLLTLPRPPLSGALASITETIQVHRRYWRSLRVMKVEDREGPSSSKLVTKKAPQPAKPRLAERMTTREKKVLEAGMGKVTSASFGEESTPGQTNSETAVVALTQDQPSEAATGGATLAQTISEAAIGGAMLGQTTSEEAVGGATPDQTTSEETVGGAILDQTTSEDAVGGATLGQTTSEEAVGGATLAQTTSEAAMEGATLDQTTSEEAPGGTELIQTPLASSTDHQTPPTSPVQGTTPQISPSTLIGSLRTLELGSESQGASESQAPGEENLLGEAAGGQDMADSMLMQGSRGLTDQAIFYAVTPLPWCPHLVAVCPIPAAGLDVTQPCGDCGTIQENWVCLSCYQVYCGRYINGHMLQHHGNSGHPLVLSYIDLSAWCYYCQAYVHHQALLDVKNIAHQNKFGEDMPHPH

[2] = molecular target: T2, Protein cereblon/Histone deacetylase 8 (Homo sapiens) (UniProt Q9BY41+Q96SW2); experiment: PROTAC activity at HDAC8/CRBN in human HCT-116 cells assessed as degradation of HDAC8 at 5 uM measured after 10 hrs in presence of MG132 by Western blot analysis
[3] = molecular target: T3, Histone deacetylase 8 (Homo sapiens) (UniProt Q9BY41); experiment: Induction of HDAC8 degradation in human HCT-116 cells assessed as maximum degradation at 0.1 to 160 uM measured after 10 hrs by Western blot analysis relative to control; conditions: dose 0.1-160 µM
T3 sequence (whole entry): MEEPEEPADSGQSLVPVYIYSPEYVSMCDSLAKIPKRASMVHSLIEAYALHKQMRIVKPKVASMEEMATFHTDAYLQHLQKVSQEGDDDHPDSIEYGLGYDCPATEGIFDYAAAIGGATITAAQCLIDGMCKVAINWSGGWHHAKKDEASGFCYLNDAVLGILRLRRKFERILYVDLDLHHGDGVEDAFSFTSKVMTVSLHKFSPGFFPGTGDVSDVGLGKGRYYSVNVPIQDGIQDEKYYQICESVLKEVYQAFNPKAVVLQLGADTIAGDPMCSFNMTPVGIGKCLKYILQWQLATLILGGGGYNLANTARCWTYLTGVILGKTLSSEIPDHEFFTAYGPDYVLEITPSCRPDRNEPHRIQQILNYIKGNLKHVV

[4] = molecular target: T2, Protein cereblon/Histone deacetylase 8 (Homo sapiens); experiment: PROTAC activity at HDAC8/CRBN in human HCT-116 cells assessed as degradation of HDAC8 at 5 uM measured after 10 hrs in presence of E3 ligase inhibitor by Western blot analysis
[5] = molecular target: T3, Histone deacetylase 8 (Homo sapiens); experiment: Induction of HDAC8 degradation in human HCT-116 cells at 5 uM measured at 2 hrs by Western blot analysis
[6] = molecular target: T3, Histone deacetylase 8 (Homo sapiens); experiment: Induction of HDAC8 degradation in human HCT-116 cells assessed as maximum degradation at 5 uM measured at 10 hrs by Western blot analysis
[7] = molecular target: T2, Protein cereblon/Histone deacetylase 8 (Homo sapiens); experiment: PROTAC activity at HDAC8/CRBN in human HCT-116 cells assessed as degradation of HDAC8 at 5 uM measured after 10 hrs in presence of BRD73954 by Western blot analysis
[8] = molecular target: T3, Histone deacetylase 8 (Homo sapiens); experiment: Induction of HDAC8 degradation in human HCT-116 cells at 5 uM by Western blot analysis relative to control
[9] = molecular target: Histone deacetylase 3 (Homo sapiens) (UniProt O15379); experiment: Induction of HDAC3 degradation in human HCT-116 cells at 0.1 to 160 uM measured after 10 hrs by Western blot analysis; conditions: dose 0.1-160 µM
[10] = molecular target: T4, Protein deacetylase HDAC6 (Homo sapiens, UniProt Q9UBN7); experiment: Induction of HDAC6 degradation in human HCT-116 cells measured after 10 hrs by Western blot analysis
T4 sequence (Q9UBN7 whole entry): T1 sequence (whole entry)

[11] = molecular target: T3, Histone deacetylase 8 (Homo sapiens); experiment: Induction of HDAC8 degradation in human HCT-116 cells assessed as hook effect measured at > 40 uM for 10 hrs by Western blot analysis
[12] = molecular target: T3, Histone deacetylase 8 (Homo sapiens); experiment: Induction of HDAC8 degradation in human HCT-116 cells at 5 uM measured at 24 hrs by Western blot analysis
[13] = molecular target: T3, Histone deacetylase 8 (Homo sapiens); experiment: Induction of HDAC8 degradation in human HCT-116 cells assessed as increase in SMC3 acetylation level measured after 10 hrs by Western blot analysis; conditions: dose 0.1-160 µM
[14] = molecular target: T2, Protein cereblon/Histone deacetylase 8 (Homo sapiens); experiment: PROTAC activity at HDAC8/CRBN in human HCT-116 cells assessed as degradation of HDAC8 at 5 uM measured after 10 hrs in presence of pomalidomide by Western blot analysis
[15] = molecular target: T2, Protein cereblon/Histone deacetylase 8 (Homo sapiens); experiment: PROTAC activity at HDAC8/CRBN in human HCT-116 cells assessed as degradation of HDAC8 at 5 uM measured after 10 hrs in presence of bafilomycin Al by Western blot analysis
[16] = molecular target: Histone deacetylase 1 (Homo sapiens) (UniProt Q13547); experiment: Induction of HDAC1 degradation in human HCT-116 cells at 0.1 to 160 uM measured after 10 hrs by Western blot analysis; conditions: dose 0.1-160 µM
Sequence of Histone deacetylase 1 (Homo sapiens) (Q13547 whole entry): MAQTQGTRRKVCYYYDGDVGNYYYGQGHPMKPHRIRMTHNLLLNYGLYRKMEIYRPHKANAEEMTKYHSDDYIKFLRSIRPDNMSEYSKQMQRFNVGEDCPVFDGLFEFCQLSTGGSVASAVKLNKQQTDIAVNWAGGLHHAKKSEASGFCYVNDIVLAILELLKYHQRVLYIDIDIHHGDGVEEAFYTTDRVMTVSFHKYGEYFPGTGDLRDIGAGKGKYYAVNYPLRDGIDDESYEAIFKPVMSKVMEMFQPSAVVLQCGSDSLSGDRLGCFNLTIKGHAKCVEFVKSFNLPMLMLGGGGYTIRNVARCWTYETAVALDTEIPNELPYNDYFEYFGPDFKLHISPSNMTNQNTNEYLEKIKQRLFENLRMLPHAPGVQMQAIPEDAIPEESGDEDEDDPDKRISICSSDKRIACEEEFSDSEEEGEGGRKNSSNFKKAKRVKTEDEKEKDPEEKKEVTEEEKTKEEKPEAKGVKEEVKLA

T2 sequence (Q96SW2 whole entry, looked up, one chain of several): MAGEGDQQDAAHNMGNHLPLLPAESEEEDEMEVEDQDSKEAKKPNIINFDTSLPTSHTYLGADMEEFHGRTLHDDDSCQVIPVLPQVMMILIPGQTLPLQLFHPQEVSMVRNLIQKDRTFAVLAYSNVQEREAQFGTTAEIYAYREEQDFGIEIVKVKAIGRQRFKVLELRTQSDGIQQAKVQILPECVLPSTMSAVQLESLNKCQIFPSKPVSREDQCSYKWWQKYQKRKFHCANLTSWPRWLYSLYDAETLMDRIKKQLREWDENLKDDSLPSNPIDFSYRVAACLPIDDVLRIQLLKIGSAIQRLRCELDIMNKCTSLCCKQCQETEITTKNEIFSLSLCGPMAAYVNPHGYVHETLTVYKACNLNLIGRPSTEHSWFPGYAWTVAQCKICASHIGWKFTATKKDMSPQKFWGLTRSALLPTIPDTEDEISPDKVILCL
Sequence of Histone deacetylase 3 (Homo sapiens) (O15379 whole entry): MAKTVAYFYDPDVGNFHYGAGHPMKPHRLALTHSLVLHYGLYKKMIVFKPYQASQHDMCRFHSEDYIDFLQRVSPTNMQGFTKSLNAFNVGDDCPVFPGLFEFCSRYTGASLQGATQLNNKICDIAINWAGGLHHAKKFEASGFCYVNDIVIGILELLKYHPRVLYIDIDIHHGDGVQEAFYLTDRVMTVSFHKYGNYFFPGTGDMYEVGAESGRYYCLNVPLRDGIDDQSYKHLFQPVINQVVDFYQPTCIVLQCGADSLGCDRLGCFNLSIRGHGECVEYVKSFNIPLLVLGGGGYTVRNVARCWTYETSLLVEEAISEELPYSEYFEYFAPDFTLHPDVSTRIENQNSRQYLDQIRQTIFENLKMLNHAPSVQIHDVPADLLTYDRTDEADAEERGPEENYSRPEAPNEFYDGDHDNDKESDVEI

Activity [1]: Dose-Dependent Effect | Activity [2]: inactive | Emax [3]: 93% | Activity [4]: inactive | Activity [5]: Active | Activity [6]: Active | Activity [7]: inactive | Activity [8]: 85% | Activity [9]: inactive | DC50 [10]: 4.95 µM | Activity [11]: Active | Activity [12]: Active | Activity [13]: Dose-Dependent Effect | Activity [14]: inactive | Activity [15]: Active | Activity [16]: inactive
SMILES: O=C(CCCCOc1ccc(CCNC(=O)c2cccc(C(=O)NO)c2)cc1)NCCCCCCNc1cccc2c1C(=O)N(C1CCC(=O)NC1=O)C2=O (stereo unspecified)

— ChEMBL document CHEMBL5338713, “Discovery of pomalidomide-based PROTACs for selective degradation of histone deacetylase 8” (Eur J Med Chem, 2022)
